We go through 35 molecules from patent US20050197350A1, “Novel quinoline, tetrahydroquinazoline, and pyrimidine derivatives and methods of treatment related to the use thereof” (TAISHO PHARMACEUTICAL CO., LTD., priority 2003, published 2005).

The test system of one assay is MCH receptors. Nature of the assay: MCH receptor activity class (method not given).
Conditions: not given
On to `Cc1cc(N(C)C)nc(N[C@H]2CC[C@@H](NC(=O)c3ccc(Cl)cc3)CC2)n1` [Example 2566, 4-chloro-N-(cis-4-{[4-(dimethylamino)-6-methylpyrimidin-2-yl]amino}cyclohexyl)benzamide], for which the class came to 1.

The assay is the same for the next values; noted with them: MCH receptor activity class 1-3 (percent of control at 10^-7 M or IC50).
As to `CN(C)c1cc(N[C@H]2CC[C@@H](NC(=S)NCc3cccc4ccccc34)CC2)nc2ccccc12` [compound 2287], the class was 3 (Class 3 The value of percent of control at 10^−7 M was more than 60% or the value of IC50 was more than 200 nM.).

The assay is the same for the next values; noted with them: MCH receptor; class by percent of control at 10^-7 M or IC50.
In the case of `CN(C)c1cc(N[C@H]2CC[C@@H](NC(=O)CCc3ccccc3)CC2)nc2ccccc12` [compound 127], the class is listed as 3 (Class 3 The value of percent of control at 10^−7 M was more than 60% or the value of IC50 was more than 200 nM.).
Turning to `CCOC(=O)c1ccc(NC(=S)N[C@H]2CC[C@@H](Nc3nc4c(c(N(C)C)n3)CCCC4)CC2)cc1` [compound 2013], the class is given as 3 (Class 3 The value of percent of control at 10^−7 M was more than 60% or the value of IC50 was more than 200 nM.).
Still for that read-out and setting: next, `CN(C)c1nc(N[C@H]2CC[C@@H](NC(=S)Nc3c(Cl)c(Cl)cc(Cl)c3Cl)CC2)nc2c1CCCC2` [compound 2031, N-(cis-4-{[4-(dimethylamino)-5,6,7,8-tetrahydroquinazolin-2-yl]amino}cyelohexyl)-N′-(2,3,5,6-tetrachlorophenyl)thiourea]: 3 (Class 3 The value of percent of control at 10^−7 M was more than 60% or the value of IC50 was more than 200 nM.); `CCC(C(=O)N[C@H]1CC[C@@H](Nc2cc(N(C)C)c3ccccc3n2)CC1)c1ccccc1` (relative stereo) [compound 66]: 3 (Class 3 The value of percent of control at 10^−7 M was more than 60% or the value of IC50 was more than 200 nM.); `CN(C)c1nc(N[C@H]2CC[C@@H](NC(=S)NCCCN3CCOCC3)CC2)nc2c1CCCC2` [compound 2078]: 3 (Class 3 The value of percent of control at 10^−7 M was more than 60% or the value of IC50 was more than 200 nM.).

The same assay, now with this note: activity class per percent of control at 10^-7 M or IC50.
As for `COc1cc(C(=O)NC[C@H]2CC[C@@H](Nc3nc4c(c(N(C)C)n3)CCCC4)CC2)ccc1[N+](=O)[O-]` [compound 1077], the class is reported as 3 (Class 3 The value of percent of control at 10^−7 M was more than 60% or the value of IC50 was more than 200 nM.).
For `CN(C)c1nc(N[C@H]2CC[C@@H](CNC(=O)C(c3ccc(Cl)cc3)c3ccc(Cl)cc3)CC2)nc2c1CCCC2` [compound 1073], the class is given as 3 (Class 3 The value of percent of control at 10^−7 M was more than 60% or the value of IC50 was more than 200 nM.).
`CCOc1ccccc1CN[C@H]1CC[C@@H](Nc2cc(N(C)C)c3ccccc3n2)CC1` [compound 1086]: the class is listed as 3 (Class 3 The value of percent of control at 10^−7 M was more than 60% or the value of IC50 was more than 200 nM.).
Still for that read-out and setting: next, `C[C@H](NC(=O)c1ccccc1C(=O)N[C@H]1CC[C@@H](Nc2nc3c(c(N(C)C)n2)CCCC3)CC1)c1ccccc1` [compound 1034]: 3 (Class 3 The value of percent of control at 10^−7 M was more than 60% or the value of IC50 was more than 200 nM.).

Staying with this assay, now noted: class 1-3 by percent of control at 10^-7 M or IC50.
Turning to `CN(C)c1ccnc(N[C@H]2CC[C@@H](CNC(=O)c3cc(C(F)(F)F)cc(C(F)(F)F)c3)CC2)n1` [compound 423, N-[(cis-4-{[4-(dimethylamino)pyrimidin-2-yl]amino}cyclohexyl)methyl]-3,5-bis(trifluoromethyl)benzamide], the class was 2 (Class 2: The value of percent of control at 10^−7 M was from 40% to 60% or the value of IC′50 was from 50 nM to 200 nM.).
With `CSc1ncccc1C(=O)N[C@H]1CC[C@@H](Nc2nc3c(c(N(C)C)n2)CCCC3)CC1` [compound 478], the class was 3 (Class 3 The value of percent of control at 10^−7 M was more than 60% or the value of IC50 was more than 200 nM.).

Staying with this assay, now noted: class by percent of control at 10^-7 M or IC50.
For `Cc1ccccc1CNC[C@H]1CC[C@@H](Nc2cc(N(C)C)c3ccccc3n2)CC1` [compound 1185], the class is on record as 3 (Class 3 The value of percent of control at 10^−7 M was more than 60% or the value of IC50 was more than 200 nM.).
`CN(C)c1cc(N[C@H]2CC[C@@H](NC(=S)Nc3ccc(I)cc3)CC2)nc2ccccc12` [compound 2272]: the class is 3 (Class 3 The value of percent of control at 10^−7 M was more than 60% or the value of IC50 was more than 200 nM.).
As to `CN(C)c1ccnc(N[C@H]2CC[C@@H](NC(=O)Nc3c(Cl)cc(Cl)cc3Cl)CC2)n1` [compound 2189, N-(cis-4-{[4-(dimethylamino)pyrimidin-2-yl]amino}cyclohexyl)-N′-(2,4,6-trichlorophenyl)urea], the class is on record as 1 (Class 1: The value of percent of control at 10^−7 M was less than 40% or the value of IC50 was less than 50 nM.).
`COc1cc(CN[C@H]2CC[C@@H](Nc3nccc(N(C)C)n3)CC2)cc(OC)c1OC` [compound 1219, N4,N4-dimethyl-N2-{cis-4-[(3,4,5-trimethoxybenzyl)amino]cyclohexcyl}pyrimidine-2,4-diamine]: the class is reported as 3 (Class 3 The value of percent of control at 10^−7 M was more than 60% or the value of IC50 was more than 200 nM.).
In the case of `CN(C)c1ccnc(N[C@H]2CC[C@@H](NC(=O)c3cc(Cl)cc(Cl)c3)CC2)n1` [compound 248], the class is given as 1 (Class 1: The value of percent of control at 10^−7 M was less than 40% or the value of IC50 was less than 50 nM.).
Still for that read-out and setting: next, `CN(C)c1ccnc(N[C@H]2CC[C@@H](NC(=O)c3ccc4ccccc4c3)CC2)n1` [compound 328]: 3 (Class 3 The value of percent of control at 10^−7 M was more than 60% or the value of IC50 was more than 200 nM.).
On to `CN(C)c1nc(N[C@H]2CC[C@@H](NC(=O)Nc3cc(Cl)ccc3Cl)CC2)nc2c1CCCC2` [compound 1821], for which the class was 3 (Class 3 The value of percent of control at 10^−7 M was more than 60% or the value of IC50 was more than 200 nM.).
Turning to `COc1ccc2[nH]c(C)c(CC(=O)N[C@H]3CC[C@@H](Nc4cc(N(C)C)c5ccccc5n4)CC3)c2c1` [compound 682, N-(cis-4-{[4-(dimethylamino)quinolin-2-yl]amino}cyclohexyl)-2-(5-methoxy-2-methyl-1H-indol-3-yl)acetamide], the class was 2 (Class 2: The value of percent of control at 10^−7 M was from 40% to 60% or the value of IC′50 was from 50 nM to 200 nM.).
`CCN(CC)c1ccc(CNC[C@H]2CC[C@@H](Nc3nc4c(c(N(C)C)n3)CCCC4)CC2)cc1` [compound 1392]: the class is given as 2 (Class 2: The value of percent of control at 10^−7 M was from 40% to 60% or the value of IC′50 was from 50 nM to 200 nM.).
On the same count and under the same terms, next, `CN(C)c1cc(N[C@H]2CC[C@@H](CNC(=O)c3c(F)ccc(F)c3F)CC2)nc2ccccc12` [compound 227]: 3 (Class 3 The value of percent of control at 10^−7 M was more than 60% or the value of IC50 was more than 200 nM.).
Same read-out and setting: next, `CN(C)c1cc(N[C@H]2CC[C@@H](CNC(=O)c3ccccc3Cc3ccccc3)CC2)nc2ccccc12` [compound 799]: 3 (Class 3 The value of percent of control at 10^−7 M was more than 60% or the value of IC50 was more than 200 nM.); `CN(C)c1nc(N[C@H]2CC[C@@H](CNC(=O)CSc3ccccc3)CC2)nc2c1CCCC2` [compound 625]: 3 (Class 3 The value of percent of control at 10^−7 M was more than 60% or the value of IC50 was more than 200 nM.); `CN(C)c1ccnc(N[C@H]2CC[C@@H](CNC(=O)c3cccc(C#N)c3)CC2)n1` [compound 374]: 3 (Class 3 The value of percent of control at 10^−7 M was more than 60% or the value of IC50 was more than 200 nM.).
Consider `Cc1oc(-c2ccccc2)cc1CNC[C@H]1CC[C@@H](Nc2cc(N(C)C)c3ccccc3n2)CC1` [compound 1192], for which the class is listed as 3 (Class 3 The value of percent of control at 10^−7 M was more than 60% or the value of IC50 was more than 200 nM.).
For the molecule `COc1cc(Br)c(CNC[C@H]2CC[C@@H](Nc3nccc(N(C)C)n3)CC2)cc1OC` [compound 1312], the class is on record as 2 (Class 2: The value of percent of control at 10^−7 M was from 40% to 60% or the value of IC′50 was from 50 nM to 200 nM.).
Consider `C=C(C)c1cccc(C(C)(C)NC(=O)N[C@H]2CC[C@@H](Nc3nccc(N(C)C)n3)CC2)c1` [compound 2218], for which the class is reported as 3 (Class 3 The value of percent of control at 10^−7 M was more than 60% or the value of IC50 was more than 200 nM.).
Consider `CN(C)c1cc(N[C@H]2CC[C@@H](NC(=O)Nc3c(Cl)cc(Cl)cc3Cl)CC2)nc2ccccc12` [compound 2099, N-(cis-4-{[4-(dimethylamino)quinolin-2-yl]amino}cyclohexyl)-N′-(2,4,6-trichlorophenyl)urea], for which the class is reported as 2 (Class 2: The value of percent of control at 10^−7 M was from 40% to 60% or the value of IC′50 was from 50 nM to 200 nM.).
Take `Cc1cccc(C)c1NC(=S)N[C@H]1CC[C@@H](Nc2cc(N(C)C)c3ccccc3n2)CC1` [compound 2171]: the class is 3 (Class 3 The value of percent of control at 10^−7 M was more than 60% or the value of IC50 was more than 200 nM.).
The same measure, in the same setting: next, `C[C@@H](NC(=O)c1ccccc1C(=O)N[C@H]1CC[C@@H](Nc2cc(N(C)C)c3ccccc3n2)CC1)c1cccc2ccccc12` [compound 737]: 3 (Class 3 The value of percent of control at 10^−7 M was more than 60% or the value of IC50 was more than 200 nM.); `Cc1cc(NC(=O)NC[C@H]2CC[C@@H](Nc3nc4c(c(N(C)C)n3)CCCC4)CC2)c(C(F)(F)F)o1` [compound 2484]: 3 (Class 3 The value of percent of control at 10^−7 M was more than 60% or the value of IC50 was more than 200 nM.).

The assay is the same for the next values; noted with them: class by percent of control at 10^−7 M or IC50.
`CCOc1ccc(C(=O)N[C@H]2CC[C@@H](Nc3nc(C)cc(N(C)C)n3)CC2)cc1` [compound 2971]: the class is given as 3 (Class 3 The value of percent of control at 10^−7 M was more than 60% or the value of IC50 was more than 200 nM.).
The same measure, in the same setting: next, `Cc1cnc(NC[C@H]2CC[C@@H](NC(=O)c3cccc(C(F)(F)F)c3)CC2)nc1N(C)C` [compound 2719]: 3 (Class 3 The value of percent of control at 10^−7 M was more than 60% or the value of IC50 was more than 200 nM.).
